In patent US20120035256A1, “Use of bipolar trans carotenoids as a pretreatment and in the treatment of peripheral vascular disease” (Diffusion Pharmaceuticals LLC, priority 2008, published 2012):

Tests used:
[1] = system: focal cerebral ischemia (three vessel occlusion: both CCA and MCA); assay: Three vessel occlusion focal cerebral ischemic model; format: in vivo, rat
Excerpt: Preconditioning or pretreating a patient (mammal including human) with a bipolar trans carotenoid is advisable for the following patients: • a patient at risk of an ischemic event; • a patient at risk of forming an embolism or blood clot in the blood vessels, the brain, the heart, or the lungs. The embolism can be fat globules (a fat embolism), air bubbles (an air embolism), talc embolism (often following drug abuse), septic emboli (containing pus and bacteria), atherosclerotic emboli, or amniotic fluid; • a patient at risk of stroke including a patient diagnosed with a blocked carotid artery or having suffered a transient ischemic attack (TIA). In Example 2, TSC was administered intravenously to rats 24 hours before the ischemic injury to the brain occurred. Sufficient time passed between the administration of TSC and the subsequent event so that the TSC would have been cleared from the system. The TSC was dissolved in water, and given over a period of an hour in the following manner. First a 0.1 ml bolus injection was given, then a slow infusion (0.6 ml given over 60 minutes) was given, and finally another 0.1 ml bolus was given. […] The occlusions were removed after 2 hours, and the infarct volume (core plus penumbra) was measured 24 hours later. […]
Trans-sodium crocetinate (0.091 mg/kg total dosage) or vehicle was administered intravenously as follows 1) 0.1 ml injection 2) continuous infusion of TSC at a rate of 0.01 ml/min for the next 60 minutes, and 3) a final 0.1 ml injection of TSC 30 minutes after the cessation of continuous infusion. […] Infarction volumes were measured 24 hours after the ischemic event.
The effects of TSC on focal ischemic injury were examined using adult male Sprague-Dawley rats, each of which weighed between 330 and 370 g. […] Rectal temperature was monitored continuously and maintained at 37° C. with a heating lamp. […]
Focal ischemic was performed by clipping (Sundt AVM microclip No 1, Codman & Shurtleff, Inc., Raynham, Mass.) the MCA at a point distal to the origin of the lenticulostriate arteries. […] After 24 hours, infarct volume was calculated. […]

[2] = Rat transcutaneous oxygen (TCOM) study with 100% oxygen; format: in vivo; conditions: male Sprague-Dawley rats breathing 100% oxygen, TSC injected into femoral vein, 45 minutes recording, FIG. 1
Protocol: For the rat TCOM studies, male Sprague-Dawley rats were used which weighed between 350 and 400 grams each. TCOM electrodes are attached to humans on the chest, on the leg, or on the top of the foot. Using a TCOM apparatus (Radiometer), the electrodes were attached to the shaven skin in the areas of the chest, the abdomen, and the thigh of the rats. Pure oxygen was then administered to the rats. The most reproducible results came from the electrode attached near the rat's abdomen, on the left or right side.
The rats were anesthetized (to quiet them) using IP injections of 80 mg/kg ketamine and 10 mg/kg xylazine.
After the animals were asleep, the abdomen area of the rat was shaved and the TCOM electrode collar was attached to that area. Using Dow Corning high vacuum silicone grease between the electrode collar and the skin was helpful in maintaining a good seal on the rat's skin.
After attaching the TCOM probe, the transcutaneous oxygen tension was then monitored for 30 minutes while the rat breathed room air. The rat was then switched to 100% oxygen and TSC was injected into the femoral vein. The TCOM readings were then recorded for an additional 45 minutes.

[3] = system: atherosclerotic plaque formation; conditions: rabbits; Gainer and Chisolm, Atherosclerosis 19: 135-138, 1974; cited from earlier work

Row | Compound | Infarct volume (actual, adjusted for swelling) ([1]; 3VO+TSC group, TSC 0.091 mg/kg total i.v. 24 hours before 120 min ischemia, measured 24 hours after the ischemic event, mean±SEM, p<0.01 vs 3VO-only or 3VO+Vehicle) [mm3] | Reduction in infarct volume, preischemic treatment ([1]; TSC 0.091 mg/kg i.v. 24 hours before ischemic injury, occlusions removed after 2 hours, infarct volume measured 24 hours later) [%] | Reduction in infarct volume, intraischemic treatment ([1]; intraischemic treatment with TSC done previously in this model) [%] | TCOM reading (transcutaneous oxygen tension) [2] | Atherosclerotic plaque formation over time [3]
1 | CC(/C=C/C=C(\C)C(=O)[O-])=C\C=C\C=C(C)\C=C\C=C(/C)C(=O)[O-].[Na+].[Na+] [TSC, trans sodium crocetinate] | 57.7±16.2 | 65 | 58 | additional increase in the TCOM reading | –
2 | CC(/C=C/C=C(\C)C(=O)O)=C\C=C\C=C(C)\C=C\C=C(/C)C(=O)O [Crocetin] | – | – | – | – | reduction in atherosclerotic plaque formation
